Data as given in ChEMBL document CHEMBL1201862, “PubChem BioAssay data set” (2004).
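Method: 48-hour compound exposure of cells in 96-well plates, five concentrations, linear interpolation of endpoints. At the GI50, growth is halved.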 The source made the active and inactive calls. Rule as the data show it: active = GI50 up to about 1.1 µM and inactive = higher.

Legend:
Experiment in all cases: inhibition of tumour cell growth, NCI panel, 48 h
[1] = test system: A549
[2] = test system: CAKI-1
[3] = test system: CCRF-CEM
[4] = test system: HOP-62
[5] = test system: HOP-92
[6] = test system: HT-29
[7] = test system: Hs-578T
[8] = test system: KM12
[9] = test system: LOX IMVI
[10] = test system: MDA-N
[11] = test system: Malme-3M
[12] = test system: NCI-H226
[13] = test system: NCI/ADR-RES
[14] = test system: OVCAR-5
[15] = test system: PC-3
[16] = test system: RPMI-8226
[17] = test system: SN12C
[18] = test system: SR
[19] = test system: TK-10
[20] = test system: U-251

Measured: GI50

CCC1=[N+](CC)CCN1CC
inactive: [1] > 100 µM | [2] > 100 µM | [3] > 100 µM | [4] > 100 µM | [5] > 100 µM | [6] > 100 µM | [7] > 100 µM | [8] > 100 µM | [9] > 100 µM | [10] > 100 µM | [11] > 100 µM | [12] > 100 µM | [13] > 100 µM | [14] > 100 µM | [15] > 100 µM | [16] > 100 µM | [17] > 100 µM | [18] > 100 µM | [19] > 100 µM | [20] > 100 µM

CC(C)(C)SC1=CCC[C@@H](P(=O)(c2ccccc2)c2ccccc2)[C@@H]2CCC[C@@H]12
inactive: [1] 17.2 µM | [2] 13.8 µM | [3] 24.6 µM | [4] 17 µM | [5] 13.7 µM | [6] 14.2 µM | [7] 20.7 µM | [8] 16.3 µM | [9] 17.5 µM | [10] 16.1 µM | [11] 19.6 µM | [12] 17.7 µM | [13] 17.2 µM | [14] 13.6 µM | [15] 14 µM | [16] 19.1 µM | [17] 15.7 µM | [18] 17 µM | [19] 17.5 µM | [20] 17.5 µM

O=C1c2cccnc2S(=O)(=O)N1c1ccc(Br)cc1
inactive: [1] > 100 µM | [2] > 100 µM | [3] 43 µM | [4] > 100 µM | [5] 99.8 µM | [6] > 100 µM | [7] > 100 µM | [8] > 100 µM | [9] > 100 µM | [10] > 100 µM | [11] 73.6 µM | [12] > 100 µM | [13] > 100 µM | [14] > 100 µM | [15] 72.4 µM | [16] 91.6 µM | [17] > 100 µM | [18] 41.3 µM | [19] > 100 µM | [20] > 100 µM

CC(C)/C(Cl)=N\OC(=O)Nc1cccc(F)c1
inactive: [1] 17.5 µM | [2] 16 µM | [3] 1.9 µM | [4] > 31.6 µM | [5] 1.46 µM | [6] 18.3 µM | [7] 26.5 µM | [8] 12.1 µM | [9] 2.14 µM | [10] 15.4 µM | [11] 6.24 µM | [12] 17.2 µM | [13] 17.1 µM | [14] 17.7 µM | [15] 16.4 µM | [16] 4.34 µM | [17] 16.5 µM | [18] 2.35 µM | [19] 14.8 µM | [20] 17.2 µM

COCn1c2ccc(OC(C)=O)cc2c2c(=O)oc(N(C)C)nc21
inactive: [1] > 100 µM | [2] > 100 µM | [3] > 100 µM | [4] > 100 µM | [5] > 100 µM | [6] > 100 µM | [7] > 100 µM | [8] > 100 µM | [9] > 100 µM | [10] > 100 µM | [11] > 100 µM | [12] > 100 µM | [13] > 100 µM | [14] > 100 µM | [15] > 100 µM | [16] > 100 µM | [17] > 100 µM | [18] > 100 µM | [19] > 100 µM | [20] > 100 µM

O=C(O)[C@@H]1CCC(=O)N1C(c1ccc2c(c1)OCO2)c1ccc2c(c1)OCO2
inactive: [1] > 100 µM | [2] > 100 µM | [3] > 10 µM | [4] > 100 µM | [5] > 100 µM | [6] > 100 µM | [7] > 100 µM | [8] > 100 µM | [9] > 100 µM | [10] > 100 µM | [11] > 100 µM | [12] > 100 µM | [13] > 100 µM | [14] > 100 µM | [15] > 100 µM | [16] > 100 µM | [17] > 100 µM | [18] > 100 µM | [19] > 100 µM | [20] > 100 µM

Cc1cc2nc(C#N)c(N3CCN(c4ccc([N+](=O)[O-])cc4)CC3)nc2cc1C
inactive: [1] > 100 µM | [2] > 70 µM | [3] > 100 µM | [4] 40.6 µM | [5] 50.4 µM | [6] > 88.5 µM | [7] 29.1 µM | [8] > 100 µM | [9] > 100 µM | [10] > 79.3 µM | [11] > 100 µM | [12] > 100 µM | [13] > 79.1 µM | [14] > 100 µM | [15] > 100 µM | [16] > 57.3 µM | [17] > 92.7 µM | [18] > 100 µM | [19] > 66.5 µM | [20] > 74.6 µM
